We go through 31 compounds from patent US9493446B2, “Orexin receptor antagonists which are [ortho bi-(hetero-)aryl]-[2-(meta bi-(hetero-)aryl)-pyrrolidin-1-yl]-methanone derivatives” (Actelion Pharmaceuticals Ltd, priority 2012, dated 2016).

Read-outs that look alike come from different tables or passages of the source.

One assay deals with human orexin-2 receptor (Homo sapiens (Human), UniProt O43614). In words: Intracellular calcium measurement (FLIPR), CHO cells expressing human orexin-2 receptor, 3 nM orexin-A. The assay is classed as cell-based. To be noted: read-out: IC50 OX2. A digest of the protocol: (§1)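 CHO transfectants were dye-loaded (fluo-4 AM, probenecid) and exposed to antagonist for 120 min ahead of agonist.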
(Calcium flux is commonly read through the fluorescence of an indicator in the cells.)

A further assay has as its target orexin-1 (Homo sapiens (Human), UniProt O43613). The assay is described as follows: Intracellular calcium measurement (FLIPR), CHO cells expressing human orexin-1 receptor, 3 nM orexin-A. In kind it is cell-based. The following applies: read-out: IC50 OX1. A digest of the protocol:
as §1

[1] abbreviates: CHO cells expressing human orexin-2 receptor, FLIPR, 3 nM orexin-A, geometric mean if determined several times.
Where [2] appears, read: CHO cells expressing human orexin-1 receptor, FLIPR, 3 nM orexin-A, geometric mean if determined several times.

By IC50 is commonly meant the concentration at which inhibition is half-maximal.

Sequence of human orexin-2 receptor (O43614 whole entry): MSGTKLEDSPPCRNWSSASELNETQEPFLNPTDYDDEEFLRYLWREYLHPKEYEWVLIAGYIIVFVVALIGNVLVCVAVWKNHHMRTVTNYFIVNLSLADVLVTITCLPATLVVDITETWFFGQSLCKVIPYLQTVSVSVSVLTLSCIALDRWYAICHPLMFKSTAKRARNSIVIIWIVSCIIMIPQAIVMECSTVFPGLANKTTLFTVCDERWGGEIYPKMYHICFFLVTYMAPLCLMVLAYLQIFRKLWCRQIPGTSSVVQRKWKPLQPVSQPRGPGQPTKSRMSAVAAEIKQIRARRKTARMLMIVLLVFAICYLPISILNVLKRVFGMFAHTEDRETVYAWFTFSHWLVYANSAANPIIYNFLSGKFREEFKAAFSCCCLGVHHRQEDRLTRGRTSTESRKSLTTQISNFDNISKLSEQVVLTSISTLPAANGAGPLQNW
Sequence of orexin-1 (O43613 whole entry): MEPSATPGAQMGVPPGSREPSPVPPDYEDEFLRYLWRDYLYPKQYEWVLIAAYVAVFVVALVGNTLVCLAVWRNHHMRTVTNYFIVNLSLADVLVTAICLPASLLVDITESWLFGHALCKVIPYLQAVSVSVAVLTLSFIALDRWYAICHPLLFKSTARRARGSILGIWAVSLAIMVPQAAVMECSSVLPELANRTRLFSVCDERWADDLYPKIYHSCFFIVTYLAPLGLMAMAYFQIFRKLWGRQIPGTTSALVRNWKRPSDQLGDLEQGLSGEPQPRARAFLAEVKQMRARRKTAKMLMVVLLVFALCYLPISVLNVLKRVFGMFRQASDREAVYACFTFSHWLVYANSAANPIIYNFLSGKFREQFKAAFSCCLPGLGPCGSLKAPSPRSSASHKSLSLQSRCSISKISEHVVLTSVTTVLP

Turning to `Cc1cc(C(=O)N2CCC[C@H]2c2nc(-c3cccc(F)c3C)no2)c(-n2nccn2)cc1C` [compound 247, (4,5-Dimethyl-2-[1,2,3]triazol-2-yl-phenyl)-{(S)-2-[3-(3-fluoro-2-methyl-phenyl)-[1,2,4]oxadiazol-5-yl]-pyrrolidin-1-yl}-methanone], the IC50 was determined as 0.003 µM at human orexin-2 receptor (setting [1]) and 0.017 µM on orexin-1 (setting [2]).
For `COc1ccc(-n2nccn2)c(C(=O)N2CCC[C@H]2c2nc(-c3cccc(F)c3C)no2)c1` [compound 249, {(S)-2-[3-(3-Fluoro-2-methyl-phenyl)-[1,2,4]oxadiazol-5-yl]-pyrrolidin-1-yl}-(5-methoxy-2-[1,2,3]triazol-2-yl-phenyl)-methanone], the values for the IC50 at human orexin-2 receptor (setting [1]) and on orexin-1 (setting [2]) were 0.008 µM and 0.151 µM, respectively.
Turning to `Cc1c(F)cccc1-c1noc([C@@H]2CCCN2C(=O)c2cc(F)ccc2-n2nccn2)n1` [compound 250, {(S)-2-[3-(3-Fluoro-2-methyl-phenyl)-[1,2,4]oxadiazol-5-yl]-pyrrolidin-1-yl}-(5-fluoro-2-[1,2,3]triazol-2-yl-phenyl)-methanone], the IC50 at human orexin-2 receptor (setting [1]) amounted to 0.038 µM; on orexin-1 (setting [2]) it was 0.489 µM.
The matching figures for `Cc1cccc(C(=O)N2CCC[C@H]2c2nc(-c3cccc(F)c3C)no2)c1-n1nccn1` [compound 251, {(S)-2-[3-(3-Fluoro-2-methyl-phenyl)-[1,2,4]oxadiazol-5-yl]-pyrrolidin-1-yl}-(3-methyl-2-[1,2,3]triazol-2-yl-phenyl)-methanone]: 0.09 µM and 0.626 µM.
In the same order, the values of `Cc1c(F)cccc1-c1noc([C@@H]2CCCN2C(=O)c2cccc(F)c2-c2ccn[nH]2)n1` [compound 253, {(S)-2-[3-(3-Fluoro-2-methyl-phenyl)-[1,2,4]oxadiazol-5-yl]-pyrrolidin-1-yl}-[3-fluoro-2-(2H-pyrazol-3-yl)-phenyl]-methanone] are 0.005 µM and 0.174 µM.
The matching figures for `CCOc1ccccc1-c1noc([C@@H]2CCCN2C(=O)c2cccc(F)c2-c2ccn[nH]2)n1` [compound 254, {(S)-2-[3-(2-Ethoxy-phenyl)-[1,2,4]oxadiazol-5-yl]-pyrrolidin-1-yl}-[3-fluoro-2-(2H-pyrazol-3-yl)-phenyl]-methanone]: 0.02 µM and 0.069 µM.
As for `CCOc1ccccc1-c1noc([C@@H]2CCCN2C(=O)c2cc(Cl)ccc2-n2nccn2)n1` [compound 255], the IC50 worked out at 0.008 µM at human orexin-2 receptor (setting [1]) and 0.036 µM at orexin-1 (setting [2]).
In the same order, the values of `CCOc1ccccc1-c1noc([C@@H]2CCCN2C(=O)c2ccc(C)cc2-n2nccn2)n1` [compound 256, {(S)-2-[3-(2-Ethoxy-phenyl)-[1,2,4]oxadiazol-5-yl]-pyrrolidin-1-yl}-(4-methyl-2-[1,2,3]triazol-2-yl-phenyl)-methanone] are 0.02 µM and 0.043 µM.
`CCOc1ccccc1-c1noc([C@@H]2CCCN2C(=O)c2cc(C)c(C)cc2-n2nccn2)n1` [compound 257, (4,5-Dimethyl-2-[1,2,3]triazol-2-yl-phenyl)-{(S)-2-[3-(2-ethoxy-phenyl)-[1,2,4]oxadiazol-5-yl]-pyrrolidin-1-yl}-methanone]: the figures for the IC50 at human orexin-2 receptor (setting [1]) and at orexin-1 (setting [2]) were 0.001 µM and 0.004 µM, respectively.
Consider `CCOc1ccccc1-c1noc([C@@H]2CCCN2C(=O)c2cc(OC)c(C)cc2-n2nccn2)n1` [compound 258, {(S)-2-[3-(2-Ethoxy-phenyl)-[1,2,4]oxadiazol-5-yl]-pyrrolidin-1-yl}-(5-methoxy-4-methyl-2-[1,2,3]triazol-2-yl-phenyl)-methanone], for which the IC50 at human orexin-2 receptor (setting [1]) stood at 0.004 µM; on orexin-1 (setting [2]) it was 0.027 µM.
As to `CCOc1ccccc1-c1noc([C@@H]2CCCN2C(=O)c2nc(C)ccc2-n2nccn2)n1` [compound 259, {(S)-2-[3-(2-Ethoxy-phenyl)-[1,2,4]oxadiazol-5-yl]-pyrrolidin-1-yl}-(6-methyl-3-[1,2,3]triazol-2-yl-pyridin-2-yl)-methanone], the IC50 on human orexin-2 receptor (setting [1]) amounted to 0.099 µM; on orexin-1 (setting [2]), 0.352 µM.
For `CCOc1ccccc1-c1noc([C@@H]2CCCN2C(=O)c2ccccc2-n2nccn2)n1` [compound 260, {(S)-2-[3-(2-Ethoxy-phenyl)-[1,2,4]oxadiazol-5-yl]-pyrrolidin-1-yl}-(2-[1,2,3]triazol-2-yl-phenyl)-methanone], the IC50 at human orexin-2 receptor (setting [1]) was determined as 0.063 µM; at orexin-1 (setting [2]) it was 0.392 µM.
The matching figures for `CCOc1ccccc1-c1noc([C@@H]2CCCN2C(=O)c2cc(OC)ccc2-n2nccn2)n1` [compound 261, {(S)-2-[3-(2-Ethoxy-phenyl)-[1,2,4]oxadiazol-5-yl]-pyrrolidin-1-yl}-(5-methoxy-2-[1,2,3]triazol-2-yl-phenyl)-methanone]: 0.009 µM and 0.026 µM.
`CCOc1ccccc1-c1noc([C@@H]2CCCN2C(=O)c2cccc(C)c2-n2nccn2)n1` [compound 262, {(S)-2-[3-(2-Ethoxy-phenyl)-[1,2,4]oxadiazol-5-yl]-pyrrolidin-1-yl}-(3-methyl-2-[1,2,3]triazol-2-yl-phenyl)-methanone]: the IC50 was determined as 0.145 µM on human orexin-2 receptor (setting [1]) and 1.11 µM at orexin-1 (setting [2]).
In the same order, the values of `CCOc1ccccc1-c1noc([C@@H]2CCCN2C(=O)c2cc(F)ccc2-n2nccn2)n1` [compound 263, {(S)-2-[3-(2-Ethoxy-phenyl)-[1,2,4]oxadiazol-5-yl]-pyrrolidin-1-yl}-(5-fluoro-2-[1,2,3]triazol-2-yl-phenyl)-methanone] are 0.105 µM and 0.505 µM.
Take `Cc1c(Cl)cccc1-c1noc([C@@H]2CCCN2C(=O)c2cc(Cl)ccc2-n2nccn2)n1` [compound 264]: the IC50 at human orexin-2 receptor was determined as 0.014 µM; at orexin-1 (setting [2]), 0.165 µM.
As for `COc1ccc(-n2nccn2)c(C(=O)N2CCC[C@H]2c2nc(-c3cccc(Cl)c3C)no2)c1F` [compound 265], the IC50 was found to be 0.076 µM at human orexin-2 receptor (setting [1]) and 0.112 µM on orexin-1 (setting [2]).
Regarding `Cc1ccc(-n2nccn2)c(C(=O)N2CCC[C@H]2c2nc(-c3cccc(Cl)c3C)no2)c1F` [compound 266], the IC50 at human orexin-2 receptor is 0.014 µM; at orexin-1 it was 0.115 µM.
With `Cc1noc(-c2ccccc2C(=O)N2CCC[C@H]2c2nc(-c3cccc(Cl)c3C)no2)n1` [compound 267], the IC50 came to 0.177 µM at human orexin-2 receptor (setting [1]) and 0.501 µM at orexin-1 (setting [2]).
The matching figures for `Cc1c(Cl)cccc1-c1noc([C@@H]2CCCN2C(=O)c2ccccc2-c2ccccc2)n1` [compound 268]: 0.031 µM and 0.233 µM.
The matching figures for `COc1cc(C(=O)N2CCC[C@H]2c2nc(-c3cccc(Cl)c3C)no2)c(-c2ncccn2)cc1C` [compound 269]: 0.012 µM and 0.177 µM.
In the same order, the values of `Cc1ccc(-n2nccn2)c(C(=O)N2CCC[C@H]2c2nc(-c3cccc(OC(F)(F)F)c3)no2)c1` [compound 270, (5-Methyl-2-[1,2,3]triazol-2-yl-phenyl)-{(S)-2-[3-(3-trifluoromethoxy-phenyl)-[1,2,4]oxadiazol-5-yl]-pyrrolidin-1-yl}-methanone] are 0.032 µM and 0.282 µM.
`Cc1ccc(C(=O)N2CCC[C@H]2c2nc(-c3ccccc3OC(F)(F)F)no2)c(-n2nccn2)c1C` [compound 271, (3,4-Dimethyl-2-[1,2,3]triazol-2-yl-phenyl)-{(S)-2-[3-(2-trifluoromethoxy-phenyl)-[1,2,4]oxadiazol-5-yl]-pyrrolidin-1-yl}-methanone]: the values for the IC50 at human orexin-2 receptor (setting [1]) and on orexin-1 (setting [2]) were 0.189 µM and 0.069 µM, respectively.
In the same order, the values of `COc1c(F)cccc1-c1noc([C@@H]2CCCN2C(=O)c2ccc(C)c(C)c2-n2nccn2)n1` [compound 272, (3,4-Dimethyl-2-[1,2,3]triazol-2-yl-phenyl)-{(S)-2-[3-(3-fluoro-2-methoxy-phenyl)-[1,2,4]oxadiazol-5-yl]-pyrrolidin-1-yl}-methanone] are 0.252 µM and 0.149 µM.
For the compound `CCOc1ncccc1-c1noc([C@@H]2CCCN2C(=O)c2ccc(C)c(C)c2-n2nccn2)n1` [compound 273, (3,4-Dimethyl-2-[1,2,3]triazol-2-yl-phenyl)-{(S)-2-[3-(2-ethoxy-pyridin-3-yl)-[1,2,4]oxadiazol-5-yl]-pyrrolidin-1-yl}-methanone], the values for the IC50 on human orexin-2 receptor (setting [1]) and on orexin-1 (setting [2]) were 0.134 µM and 0.148 µM, respectively.
The matching figures for `Cc1ccc(-c2ncccn2)c(C(=O)N2CCC[C@H]2c2nc(-c3cccc(Cl)c3C)no2)c1` [compound 274]: 0.029 µM and 0.171 µM.
`N#Cc1ccc(-n2nccn2)c(C(=O)N2CCC[C@H]2c2nc(-c3ccccc3OC(F)(F)F)no2)c1` [compound 275, 4-[1,2,3]Triazol-2-yl-3-{(S)-2-[3-(2-trifluoromethoxy-phenyl)-[1,2,4]oxadiazol-5-yl]-pyrrolidine-1-carbonyl}-benzonitrile]: the IC50 is 0.161 µM at human orexin-2 receptor (setting [1]) and 0.21 µM at orexin-1 (setting [2]).
The matching figures for `Cc1c(Cl)cccc1-c1noc([C@@H]2CCCN2C(=O)c2cc(C#N)ccc2-n2nccn2)n1` [compound 276]: 0.243 µM and 0.762 µM.
Regarding `Cc1c(F)cccc1-c1noc([C@@H]2CCCN2C(=O)c2cc(C#N)ccc2-n2nccn2)n1` [compound 277, 3-{(S)-2-[3-(3-Fluoro-2-methyl-phenyl)-[1,2,4]oxadiazol-5-yl]-pyrrolidine-1-carbonyl}-4-[1,2,3]triazol-2-yl-benzonitrile], the IC50 at human orexin-2 receptor (setting [1]) was determined as 0.297 µM; at orexin-1 (setting [2]), 1.48 µM.
Turning to `CCOc1ncccc1-c1noc([C@@H]2CCCN2C(=O)c2cc(C#N)ccc2-n2nccn2)n1` [compound 279, 3-{(S)-2-[3-(2-Ethoxy-pyridin-3-yl)-[1,2,4]oxadiazol-5-yl]-pyrrolidine-1-carbonyl}-4-[1,2,3]triazol-2-yl-benzonitrile], the IC50 amounted to 0.135 µM at human orexin-2 receptor (setting [1]) and 0.296 µM on orexin-1 (setting [2]).
The matching figures for `COc1cc(C(=O)N2CCC[C@H]2c2nc(-c3cccc(Cl)c3C)no2)c(-n2nccn2)cc1Cl` [compound 280]: 0.004 µM and 0.054 µM.
